Assay results: patent US9845321B2, “1,3-dihydro-2H-benzimidazol-2-one derivatives substituted with heterocycles as respiratory syncytial virus antiviral agents” (JANSSEN SCIENCES IRELAND UC, priority 2012, dated 2017)

What was measured:
[1] = test system: rgRSV224 virus; test: Antiviral activity: rgRSV224 (GFP-expressing RSV) replication in HeLa cells, GFP expression measured three days post-virus exposure; assay type: cell-based; conditions: human respiratory syncytial virus, 72 h, read-out: WT activity pEC50 (converted)
Description: (§1) Black 96-well clear-bottom microtiter plates (Corning, Amsterdam, The Netherlands) were filled in duplicate using a customized robot system with serial 4-fold dilutions of compound in a final volume of 50 μl culture medium [RPMI medium without phenol red, 10% FBS, 0.04% gentamycin (50 mg/ml) and 0.5% DMSO]. Then, 100 μl of a HeLa cell suspension (5×10^4 cells/ml) in culture medium was added to each well followed by the addition of 50 μl rgRSV224 (MOI=0.02) virus in culture medium using a multidrop dispenser (Thermo Scientific, Erembodegem, Belgium). rgRSV224 virus is an engineered virus that includes an additional GFP gene (Hallak et al, 2000) and was in-licensed from the NIH (Bethesda, Md., USA). Medium, virus- and mock-infected controls were included in each test. Cells were incubated at 37° C. in a 5% CO2 atmosphere. Three days post-virus exposure, viral replication was quantified by measuring GFP expression in the cells by a MSM laser microscope (Tibotec, Beerse, Belgium). The EC50 was defined as the 50% inhibitory concentration for GFP expression. In parallel, compounds were incubated for three days in a set of white 96-well microtitier plates (Corning) and the cytotoxicity of compounds in HeLa cells was determined by measuring the ATP content of the cells using the ATPlite kit (PerkinElmer, Zaventem, Belgium) according to the manufacturer's instructions. The CC50 was defined as the 50% concentration for cytotoxicity.

[2] = in vitro; assay type: cell-based; conditions: human
Description: as §1

SMILES | EC50 [1] [nM] | CC50 at 3 days [2] [nM]
N#CCCCn1c(Cn2c(=O)n(-c3nccs3)c3ccncc32)cc2cc(Cl)ccc21 [Compound P49, 4-(5-chloro-2-((2-oxo-1-(thiazol-2-yl)-1H-imidazo[4,5-c]pyridin-3(2H)-yl)methyl)-1H-indol-1-yl)butanenitrile] | 6.31 | > 25100
CS(=O)(=O)CCCn1c(Cn2c(=O)n(C3CNC3)c3ccc(F)cc32)cc2cc(Cl)ccc21 [Compound P3, 1-(azetidin-3-yl)-3-((5-chloro-1-(3-(methylsulfonyl)propyl)-1H-indol-2-yl)methyl)-5-fluoro-1H-benzo[d]imidazol-2(3H)-one] | 100 | 12600
N#CCCCn1c(Cn2c(=O)n(-c3ccc(C(=O)O)cc3)c3ccncc32)cc2cc(Cl)ccc21 [Compound P52, 4-(3-((5-chloro-1-(3-cyanopropyl)-1H-indol-2-yl)methyl)-2-oxo-2,3-dihydro-1H-imidazo[4,5-c]pyridin-1-yl)benzoic acid] | 0.501 | > 25100
COC(=O)c1ccc(-n2c(=O)n(Cc3cc4cc(Cl)ccc4n3CCCC#N)c3cnccc32)cc1 [Compound P51, methyl 4-(3-((5-chloro-1-(3-cyanopropyl)-1H-indol-2-yl)methyl)-2-oxo-2,3-dihydro-1H-imidazo[4,5-c]pyridin-1-yl)benzoate] | 0.794 | 39800
N#CCCCn1c(Cn2c(=O)n(-c3ccc4ncccc4c3)c3ccncc32)cc2cc(Cl)ccc21 [Compound P43, 4-(5-chloro-2-((2-oxo-1-(quinolin-6-yl)-1H-imidazo[4,5-c]pyridin-3(2H)-yl)methyl)-1H-indol-1-yl)butanenitrile] | 0.398 | > 100000
N#CCCCn1c(Cn2c(=O)n(-c3ccc(C(=O)NC4CC4)cc3)c3ccncc32)cc2cc(Cl)ccc21 [Compound P53, 4-(3-((5-chloro-1-(3-cyanopropyl)-1H-indol-2-yl)methyl)-2-oxo-2,3-dihydro-1H-imidazo[4,5-c]pyridin-1-yl)-N-cyclopropylbenzamide] | 0.501 | 25100
COc1ccc(-n2c(=O)n(Cc3nc4nc(Cl)ccc4n3CCC(C)C)c3cnccc32)cc1 [Compound P16, 3-((5-chloro-1-isopentyl-1H-imidazo[4,5-b]pyridin-2-yl)methyl)-1-(4-methoxyphenyl)-1H-imidazo[4,5-c]pyridin-2(3H)-one] | 1 | > 50100
CC1(n2c(=O)n(Cc3cc4cc(Cl)ccc4n3CCCS(C)(=O)=O)c3cnccc32)CC1 [Compound P7, 3-((5-chloro-1-(3-(methylsulfonyl)propyl)-1H-indol-2-yl)methyl)-1-(1-methylcyclopropyl)-1H-imidazo[4,5-c]pyridin-2(3H)-one] | 0.501 | 50100
N#CCCCn1c(Cn2c(=O)n(-c3ccc(OC(F)(F)F)cc3)c3ccncc32)cc2cc(Cl)ccc21 [Compound P29, 4-(5-chloro-2-((2-oxo-1-(4-(trifluoromethoxy)phenyl)-1H-imidazo[4,5-c]pyridin-3(2H)-yl)methyl)-1H-indol-1-yl)butanenitrile] | 1.26 | > 100000
Cn1ccnc1-n1c(=O)n(Cc2cc3cc(Cl)ccc3n2CCCC#N)c2cnccc21 [Compound P33, 4-(5-chloro-2-((1-(1-methyl-1H-imidazol-2-yl)-2-oxo-1H-imidazo[4,5-c]pyridin-3(2H)-yl)methyl)-1H-indol-1-yl)butanenitrile] | 10 | > 100000
CS(=O)(=O)CCCn1c(Cn2c(=O)n(C3CNC3)c3ccncc32)cc2cc(Cl)ccc21 [Compound P4, 1-(azetidin-3-yl)-3-((5-chloro-1-(3-(methylsulfonyl)propyl)-1H-indol-2-yl)methyl)-1H-imidazo[4,5-c]pyridin-2(3H)-one] | 31.6 | > 100000
COc1ccc(-n2c(=O)n(Cc3cc4cc(Cl)ccc4n3CCCC#N)c3cnccc32)cc1F [Compound P15, 4-(5-chloro-2-((1-(3-fluoro-4-methoxyphenyl)-2-oxo-1H-imidazo[4,5-c]pyridin-3(2H)-yl)methyl)-1H-indol-1-yl)butanenitrile] | 1 | > 100000
CC(C)CCn1c(Cn2c(=O)n(-c3ccncc3)c3ccncc32)nc2nc(Cl)ccc21 [Compound P23, 3-((5-chloro-1-isopentyl-1H-imidazo[4,5-b]pyridin-2-yl)methyl)-1-(pyridin-4-yl)-1H-imidazo[4,5-c]pyridin-2(3H)-one] | 7.94 | > 100000
COc1ccc(-n2c(=O)n(Cc3cc4cc(Cl)ccc4n3CCCC#N)c3cnccc32)cc1 [Compound P14, 4-(5-chloro-2-((1-(4-methoxyphenyl)-2-oxo-1H-imidazo[4,5-c]pyridin-3(2H)-yl)methyl)-1H-indol-1-yl)butanenitrile] | 0.398 | 12600
COc1ccc(-n2c(=O)n(Cc3cc4nc(Cl)ccc4n3CCCC(F)(F)F)c3cnccc32)cc1 [Compound P17, 3-((5-chloro-1-(4,4,4-trifluorobutyl)-1H-pyrrolo[3,2-b]pyridin-2-yl)-methyl)-1-(4-methoxyphenyl)-1H-imidazo[4,5-c]pyridin-2(3H)-one] | 10 | > 100000
N#CCCCn1c(Cn2c(=O)n(-c3ccncc3)c3ccncc32)cc2cc(Cl)ccc21 [Compound P48, 4-(5-chloro-2-((2-oxo-1-(pyridin-4-yl)-1H-imidazo[4,5-c]pyridin-3(2H)-yl)methyl)-1H-indol-1-yl)butanenitrile] | 2.51 | > 100000
O=c1n(Cc2cc3cc(Cl)ccc3n2CCCCF)c2cnccc2n1-c1ccc2ncccc2c1 [Compound P31, 3-((5-chloro-1-(4-fluorobutyl)-1H-indol-2-yl)methyl)-1-(quinolin-6-yl)-1H-imidazo[4,5-c]pyridin-2(3H)-one] | 1.58 | > 100000
CS(=O)(=O)CCCn1c(Cn2c(=O)n(-c3ccc(Cl)cc3)c3ccncc32)cc2cc(Cl)ccc21 [Compound P30, 3-((5-chloro-1-(3-(methylsulfonyl)propyl)-1H-indol-2-yl)methyl)-1-(4-chlorophenyl)-1H-imidazo[4,5-c]pyridin-2(3H)-one] | 1.58 | > 100000
N#CCCCn1c(Cn2c(=O)n(-c3ccncc3F)c3ccncc32)cc2cc(Cl)ccc21 [Compound P42, 4-(5-chloro-2-((1-(3-fluoropyridin-4-yl)-2-oxo-1H-imidazo[4,5-c]pyridin-3(2H)-yl)methyl)-1H-indol-1-yl)butanenitrile] | 0.316 | > 100000
CC(C)(O)CN1CC(n2c(=O)n(Cc3cc4cc(Cl)ccc4n3CCCS(C)(=O)=O)c3cc(F)ccc32)C1 [Compound P12, 3-((5-chloro-1-(3(methylsulfonyl)propyl)-1H-indol-2-yl)methyl)-5-fluoro-1-(1-(2-hydroxy-2-methylpropyl)azetidin-3-yl)-1H-benzo[d]imidazol-2(3H)-one] | 39.8 | 12600
COc1ccc(-n2c(=O)n(Cc3cc4cc(Cl)ccc4n3CCCC#N)c3cnccc32)c(OC)c1 [Compound P47, 4-(5-chloro-2-((1-(2,4-dimethoxyphenyl)-2-oxo-1H-imidazo[4,5-c]pyridin-3(2H)-yl)methyl)-1H-indol-1-yl)butanenitrile] | 1.58 | > 100000
O=c1n(Cc2cc3cc(Cl)ccc3n2CCCCF)c2cnccc2n1-c1ccncc1 [Compound P44, 3-((5-chloro-1-(4-fluorobutyl)-1H-indol-2-yl)methyl)-1-(pyridin-4-yl)-1H-imidazo[4,5-c]pyridin-2(3H)-one] | 1 | > 100000
CC(C)CCn1c(Cn2c(=O)n(C3(C)CC3)c3ccncc32)nc2nc(Cl)ccc21 [Compound P18, 3-((5-chloro-1-isopentyl-1H-imidazo[4,5-b]pyridin-2-yl)methyl)-1-(1-methylcyclopropyl)-1H-imidazo[4,5-c]pyridin-2(3H)-one] | 2 | > 100000
COCCOc1ccc(-n2c(=O)n(Cc3cc4cc(Cl)ccc4n3CCCC#N)c3cnccc32)cc1 [Compound P28, 4-(5-chloro-2-((1-(4-(2-methoxyethoxy)phenyl)-2-oxo-1H-imidazo[4,5-c]pyridin-3(2H)-yl)methyl)-1H-indol-1-yl)butanenitrile] | 0.2 | > 100000
CC1(n2c(=O)n(Cc3nc4nc(Cl)ccc4n3CCCC(F)(F)F)c3cnccc32)CC1 [Compound P9, 3-((5-chloro-1-(4,4,4-trifluorobutyl)-1H-imidazo[4,5-b]pyridin-2-yl)methyl)-1-(1-methylcyclopropyl)-1H-imidazo[4,5-c]pyridin-2(3H)-one] | 1 | > 100000
N#CCCCn1c(Cn2c(=O)n(-c3ccncc3)c3ccc(F)cc32)cc2cc(Cl)ccc21 [Compound P40, 4-(5-chloro-2-((6-fluoro-2-oxo-3-(pyridin-4-yl)-2,3-dihydro-1H-benzo[d]imidazol-1-yl)methyl)-1H-indol-1-yl)butanenitrile] | – | > 100000
